Here are results for 4 molecules from article PMC5601625, “Defining a therapeutic window for kinase inhibitors in leukemia to avoid neutropenia” (Oncotarget, 2017).

In general, IC50 refers to the concentration that inhibits the measured activity by half.

“Also recorded” adds a separate entry of the source. Where two headings read alike, the source gives them in different places.

Data set [1] relates to primary murine bone-marrow neutrophils. As to the kind of experiment: Live cell imaging viability of primary bone-marrow neutrophils. To be noted: for effect of chemotherapeutics on neutrophil viability: GM-CSF-primed, dose-dependent, Figure 5D.
Description: Using a high-throughput live cell imaging approach reported previously [15], we examined the effect of the kinase inhibitors on the viability of bone marrow neutrophils to determine their potential to cause neutropenia (Figure 2). Because G-CSF and GM-CSF are dominant regulators of granulopoiesis and neutrophil survival, and are commonly used in a clinical setting to mobilize hematopoietic stem cells into the blood and increase neutrophil production [27–31], we treated cells with these cytokines immediately prior to drug exposure. The addition of either cytokine prevents constitutive neutrophil apoptosis thereby increasing the window for detection of changes in viability induced by drug treatments.
For all above, data represent mean ± SEM from three independent samples.
Mouse bone marrow neutrophils were prepared as described [15]. Neutrophils were resuspended in phenol red-free DMEM/10% FBS for imaging studies. The purity of neutrophil preparations was routinely 96% ± 4% (Mean ± SD, n = 50) as assessed by cytology following May-Grünwald/Giemsa staining.
Kinase inhibitors were purchased from SYN kinase (Melbourne, Australia) and were used at 1 μM, unless otherwise specified, with dilutions performed in assay buffer containing 0.1% DMSO.
Viability was monitored using 2 μg/mL PI (Sigma). Images were captured every 30-60 min by the Zeiss Axiovert 200M Microscope at 37 °C/10% CO2. Quantitative analysis was performed using a custom-scripted MetaMorph (Molecular Devices) journal suite incorporating the count nuclei function, reconstruction & subtraction functions and Integrated Morphometry Analysis to select and analyze cells of interest.
Another data set deals with MV4;11. Kind of data set: Cell Titer Glo cell viability assay, 48 h. The class given is cell-based, human. The following applies: 48 h, mean of 2 independent experiments, 0 = less than 10 nM, cell line not given, read-out: IC50 of inhibitors on cell lines, m (mean). Summed up:
(§1)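 Leukemia cells (5 × 10^3 per well, RPMI with 10% FCS) were exposed in duplicate to 2-fold serial dilutions of inhibitors from […] DMSO stocks for 48 h. Viability was read by Cell Titer Glo luminescence; each line was tested on at least two occasions.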
Background: Cellular ATP, detected with luciferase, serves as a proxy for viable cell number.

The subject of a further data set is EOL-1. Kind of data set: Cell Titer Glo cell viability assay, 48 h. Type of data set: cell-based, human. To be noted: 48 h, mean of 2 independent experiments, 0 = less than 10 nM, cell line not given, read-out: IC50 of inhibitors on cell lines, m (mean). In short, it runs like this: as §1
The subject of a further data set is K562. As to the kind of experiment: Cell Titer Glo cell viability assay, 48 h. The following applies: 48 h, mean of 2 independent experiments, 0 = less than 10 nM, cell line not given, read-out: IC50 of inhibitors on cell lines, m (mean). The class given is cell-based, human. In short, it runs like this:
as §1

For the next data set, the system named is HL-60. As to the kind of experiment: Cell Titer Glo cell viability assay, 48 h. Type of data set: cell-based, human. To be noted: 48 h, mean of 2 independent experiments, 0 = less than 10 nM, cell line not given, read-out: IC50 of inhibitors on cell lines, m (mean). Summed up:
as §1

The subject of another data set is JURKAT. As to the kind of experiment: Cell Titer Glo cell viability assay, 48 h. Type of data set: cell-based, human. The following applies: 48 h, mean of 2 independent experiments, 0 = less than 10 nM, cell line not given, read-out: IC50 of inhibitors on cell lines, m (mean). Summed up:
as §1

In the next data set the test system is THP-1. As to the kind of experiment: Cell Titer Glo cell viability assay, 48 h. To be noted: 48 h, mean of 2 independent experiments, 0 = less than 10 nM, cell line not given, read-out: IC50 of inhibitors on cell lines, m (mean). The class given is cell-based, human. In short, it runs like this:
as §1

The test system of a further data set is MOLT4. Kind of data set: Cell Titer Glo cell viability assay, 48 h. To be noted: 48 h, mean of 2 independent experiments, 0 = less than 10 nM, cell line not given, read-out: IC50 of inhibitors on cell lines, m (mean). Type of data set: cell-based, human. In short, it runs like this: as §1
Another data set concerns U937. Kind of data set: Cell Titer Glo cell viability assay, 48 h. The following applies: 48 h, mean of 2 independent experiments, 0 = less than 10 nM, cell line not given, read-out: IC50 of inhibitors on cell lines, m (mean). Type of data set: cell-based, human. In short, it runs like this: as §1
For another data set, the system named is KU-812. As to the kind of experiment: Cell Titer Glo cell viability assay, 48 h. The class given is cell-based, human. To be noted: 48 h, mean of 2 independent experiments, 0 = less than 10 nM, cell line not given, read-out: IC50 of inhibitors on cell lines, m (mean). Summed up:
as §1

For the next data set, the system named is MEG-01. As to the kind of experiment: Cell Titer Glo cell viability assay, 48 h. The class given is cell-based, human. To be noted: 48 h, mean of 2 independent experiments, 0 = less than 10 nM, cell line not given, read-out: IC50 of inhibitors on cell lines, m (mean). Summed up:
as §1

For the next data set, the system named is HEL.92.1.7. Kind of data set: Cell Titer Glo cell viability assay, 48 h. Type of data set: cell-based, human. To be noted: 48 h, mean of 2 independent experiments, 0 = less than 10 nM, cell line not given, read-out: IC50 of inhibitors on cell lines, m (mean). Summed up:
as §1

The next data set deals with OCI-AML3. As to the kind of experiment: Cell Titer Glo cell viability assay, 48 h. Type of data set: cell-based, human. The following applies: 48 h, mean of 2 independent experiments, 0 = less than 10 nM, cell line not given, read-out: IC50 of inhibitors on cell lines, m (mean). Summed up:
as §1

The subject of data set [2] is human peripheral blood neutrophils. As to the kind of experiment: Human neutrophil viability by propidium iodide exclusion, flow cytometry. The following applies: G-CSF or GM-CSF primed 1 h; treated 18 h; dose range. As to the method:
Figure 3 Assessment of human neutrophil viability in response to kinase inhibitor treatment Human peripheral blood neutrophils from three healthy donors were primed with G-CSF or GM-CSF for 1 hour before addition of selected kinase inhibitors (as shown) or DMSO (control) at concentrations as indicated. Neutrophil viability was assessed after 18 hours of treatment, by propidium iodide exclusion measured by flow cytometry. Mean ± SEM shown.
Donors were 18 years of age or older and had not taken anti-inflammatory medications during the 2 weeks before donating. […] Human neutrophils were then isolated on a three-layer Percoll gradient as described for mouse bone marrow neutrophils as described. […] Neutrophils were resuspended in DMEM/10%FBS, and primed with 10 ng/mL recombinant human G-CSF (Amgen) or 10 ng/mL recombinant human GM-CSF (Leukine, Sargramostim) for 1 h. Compounds or DMSO carrier were added for […]. Viability was assessed by staining neutrophils with propidium iodide and analyzing on a BD Fortessa.
(In general: Flow cytometry measures light scatter and fluorescence of single cells or particles in a stream.)

The conditions of data set [3]: cited from earlier work.
The test system of data set [4] is primary murine myeloid HPCs (lin-c-Kit+Sca-1- cells). As to the kind of experiment: Live cell imaging viability of hematopoietic myeloid progenitor cells. An excerpt: (C & D) Dose-dependent effects of common chemotherapeutics on GM-CSF-primed primary murine myeloid HPCs C. or GM-CSF-primed primary murine bone-marrow neutrophils D. as assessed by live cell imaging analysis (concentrations as marked). E. Comparison of G-CSF (red/orange) or GM-CSF (blue) priming of myeloid HPCs before treatment with chemotherapeutics as assessed by live cell imaging (concentrations as marked). […] Mean ± SEM with n = 3 independent samples. * p < 0.05.
For purification of myeloid progenitor cells, bone marrow cells were collected in DMEM/10% FCS. After red cell lysis, cells were stained with biotin-conjugated antibodies against Ter119, Gr-1, Mac-1, B220, CD4, CD8 and IL-7Rα and incubated with streptavidin-microbeads (Miltenyi Biotech). Lineage positive cells were depleted by magnetic separation using MACS LS columns and QuadroMACS^TM separator magnets (Miltenyi Biotech). Hematopoietic myeloid progenitor cells that were propidium iodide (PI) negative, lineage-negative, Sca-1 negative and c-Kit positive, were sorted and collected by flow cytometry on a FACSAria or Diva (BD Biosciences). For imaging studies, cells were resuspended in StemPro-34 SFM (Invitrogen). Cells were cultured in 10 ng/mL human G-CSF (Neupogen, Amgen), 10 ng/mL recombinant mouse GM-CSF or 10 ng/mL recombinant human GM-CSF.
The MetaMorph script is available upon request.

Data set [5] relates to panel of human leukemia cell lines. Kind of data set: Cell Titer Glo cell viability assay, 48 h, statements across the whole panel. As to the method:
The activity of the kinase inhibitor collection against a panel of human leukemia cell lines was determined in cell viability assays run over 48 h using the Cell Titer Glo reagent.
Figure 1 Effects of kinase inhibition on the proliferation of leukemia cells A. Human leukemia cell lines were treated with duplicate serial dilutions of kinase inhibitors and the effect on cell viability was determined by Cell Titer Glo assay after 48 hours. Data shown represents the mean IC50 of each condition from 2 independent experiments. HL-60 cells were treated with serial dilutions of mTor/PI3K B. and MEK C. inhibitors and the effect on cell viability was determined after 48 hours. Data shown is the mean ± SEM of 3 independent experiments.
Leukemia and lymphoma cell lines were grown in RPMI containing 10% FCS. […] Cell lines are routinely tested for mycoplasma and genotyped by short tandem repeating (STR) profiling to confirm identity.
Compounds were obtained from SynMedChem and dissolved at […] in DMSO. Serial 2-fold dilutions of each compound were prepared in DMSO using a liquid handling robot (Janus, Perkin Elmer). Each dilution (100nL) was transferred to duplicate tissue culture plates containing 50 μL of media containing 5 × 10^3 cells using a 384 well pin tool. Cells were incubated for 48 h and cell viability was determined using Cell Titer Glow reagents as described by the manufacturer (Promega). Data was acquired using a luminescent plate reader (Envision, Perkin Elmer) and analysed using Activity Base (IDBS, Guilford, UK) and visualised using Spotfire (TIBCO, Palo Alto, CA) as described previously. Each cell line was assayed in independent experiments on at least two occasions. […] Serial 2-fold dilutions of each compound were prepared in media containing 0.2% DMSO and 50 μl of each dilution was added to 10^4 cells in 50 μl of media. Cells were incubated for 48 h and cell viability was determined using Cell Titer Glow assay as described above.

As for `CC(C)(C)c1cnc(CSc2cnc(NC(=O)C3CCNCC3)s2)o1` [SNS-032], the “effect on mouse neutrophil viability (words)” value in data set [1] (G-CSF- or GM-CSF-primed, inhibitors at 1 μM, over 24 hours) is “induced rapid cell death; also recorded: significant impact on neutrophil viability”. Besides, the EC50 in [1] (Mus musculus, Neutrophil, 12 h, read-out: EC50 neutrophil viability, Bak-/- Bax deficient) was above 1000 nM; in data set [1] (Mus musculus, Neutrophil, 12 h, read-out: EC50 neutrophil viability, Mcl-1+/-) it was 80 nM; in data set [1] (Mus musculus, Neutrophil, 12 h, read-out: EC50 neutrophil viability, wild-type) it was 182 nM; in data set [1] (Mus musculus, Neutrophil, read-out: EC50 neutrophil viability, G-CSF primed), 194 nM; in data set [1] (Mus musculus, Neutrophil, read-out: EC50 neutrophil viability, GM-CSF primed), 218 nM. In addition, the IC50 in the data set on MV4;11 (Homo sapiens) worked out at 150 nM; with EOL-1 (Homo sapiens, EOL1), 90 nM; in the data set on K562 (Homo sapiens), 720 nM; with HL-60 (Homo sapiens) it was 100 nM; with JURKAT (Homo sapiens), 160 nM; with THP-1 (Homo sapiens), 140 nM. The IC50 turned out to be 290 nM in the data set on MOLT4 (Homo sapiens, MOLT-4); 70 nM with U937 (Homo sapiens, U-937); 610 nM in the data set with KU-812 (Homo sapiens, KU812); 580 nM in the data set with MEG-01 (Homo sapiens); 1330 nM in the data set with HEL.92.1.7 (Homo sapiens); 190 nM with OCI-AML3 (Homo sapiens, OCI-AML-3). Moreover, in data set [2], the “sensitivity of human neutrophils” value is on record as “sensitive”. Also, in data set [3] (patients with chronic lymphocytic leukemia and multiple myeloma), the “dose-limiting side-effect in patients” value is reported as “neutropenia as the dose-limiting side-effect”.

Turning to `CC(=O)O[C@@]12CO[C@@H]1C[C@H](O)[C@@]1(C)C(=O)[C@H](O)C3=C(C)[C@@H](OC(=O)[C@H](O)[C@@H](NC(=O)OC(C)(C)C)c4ccccc4)C[C@@](O)([C@@H](OC(=O)c4ccccc4)[C@H]21)C3(C)C` [docetaxel], in data set [1], the “effect of chemotherapeutics on neutrophil viability” value is “no effects”. Also, the “effect of chemotherapeutics on HPC viability” value in data set [4] is listed as “no effects”. In [3], the “neutropenia in the clinic” value is “induce neutropenia in the clinic”.

Take `Cc1ccc([N+](=O)[O-])cc1S(=O)(=O)N(C)/N=C/c1cnc2ccc(Br)cn12` [PIK-75]: in data set [5] (12 leukemia cell lines), the “cytotoxicity to leukemia cell lines” value was “potently cytotoxic to all lines examined”. Also, the IC50 was at most 10 nM in data set [5] (read-out: IC50 across most of the cell lines examined, Cell Titer Glo, most of 12 leukemia lines); 10 nM in the data set with MV4;11; 40 nM in the data set with EOL-1; 330 nM in the data set with K562; 60 nM in the data set on HL-60; 90 nM in the data set on JURKAT. Also, the IC50 with THP-1 worked out at 100 nM; in the data set on MOLT4 it was 130 nM; in the data set with U937, 60 nM; with KU-812 it was 140 nM; in the data set with MEG-01 it was 290 nM; in the data set on HEL.92.1.7 it was 80 nM. Moreover, in the data set with OCI-AML3, the IC50 stood at 100 nM. Further, the EC50 was found to be 57 nM in data set [1] (read-out: EC50 neutrophil viability, Mcl-1+/-, Mcl-1+/- neutrophils, 12 hour time-point) and 228 nM in data set [1] (read-out: EC50 neutrophil viability, wild-type, WT neutrophils, 12 hour time-point). Also, the “effect of kinase inhibitors on HPC viability” value in data set [4] (G-CSF- or GM-CSF-primed, 1 μM, over 24 hours) is “active against both G-CSF- and GM-CSF-treated HPC”. For the same molecule, the “sensitivity of human neutrophils” value in data set [2] is “sensitive”.

`N.N.O=C([O-])C1(C(=O)[O-])CCC1.[Pt+2]` [carboplatin]: in data set [1], the “effect of chemotherapeutics on neutrophil viability” value is listed as “no effects”. In data set [4] (GM-CSF-primed, dose-dependent, Figure 5C), the “effect of chemotherapeutics on HPC viability” value was “no effects”. For the same molecule, in [3], the “neutropenia in the clinic” value is listed as “induce neutropenia in the clinic”.
